Laboratory results reported in US12187752B2, “Solid forms and combination compositions comprising a beta-lactamase inhibitor and uses thereof” (priority 2017, dated 2025).
Values after ≈ are worked out from the molar mass of the structure shown. “Also recorded” adds a separate entry of the source. Structures can show the parent of a compound that is named as a salt. Where two headings read alike, the source gives them in different places.

Experiments:
[1] = test system: Elizabethkingia meningoseptica; assay: MIC testing, Elizabethkingia meningoseptica; assay type: cell-based; conditions: for MIC50 / MIC90: Elizabethkingia meningoseptica
[2] = Stability of aqueous solutions of combination formulation at pH 5.0; assay type: physicochemical; conditions: pH 5.0 at 25° C.
Pseudomonas aeruginosa [3] = assay: MIC testing, Pseudomonas aeruginosa isolates non-susceptible to cefepime; assay type: cell-based; conditions: for % S@8: 554 isolates non-susceptible to cefepime; for MIC50 / MIC90: Pseudomonas aeruginosa
Pseudomonas aeruginosa [4] = assay: MIC testing, Pseudomonas aeruginosa isolates non-susceptible to meropenem; assay type: cell-based; conditions: for % S@8: 507 isolates non-susceptible to meropenem; for MIC50 / MIC90: Pseudomonas aeruginosa
[5] = test system: Stenotrophomonas maltophilia; assay: MIC testing, Stenotrophomonas maltophilia; assay type: cell-based; conditions: for MIC90 / MIC50: Stenotrophomonas maltophilia
From the text: Stenotrophomonas maltophilia is a Gram negative bacillus. It is an opportunistic MDR pathogen. It has been linked to infections with high morbidity and mortality in severely immunocompromised and debilitated individuals.

[6] = Physical stability of Compound 1-dihydrochloride at four temperature/RH conditions; assay type: physicochemical
Experimental: A physical stability study of Compound 1-dihydrochloride (mixture of Form 1 and Form 2) was conducted. A solid sample of Compound 1-dihydrochloride was incubated under four relative humidity and temperature conditions: 5° C./ambient RH, 25° C./60% RH, 30° C./65% RH and 40° C./75% RH. At regular intervals, the compound was analyzed by HR-XRPD and TGMS. […] The water content is in line with the monohydrate nature of Compound 1-dihydrochloride Form 1. The TGMS analyses recorded for the 2 weeks and 1-month incubation is also along the 3.8% of water (1 molecule of water per molecule of API).

[7] = Solubility of Compound 1-dihydrochloride in IPA/water mixtures; assay type: physicochemical; conditions: IPA/water mixture, aqueous with cosolvent or surfactant or cyclodextrin, thermodynamic from solid
Experimental: In order to design a re-crystallization process for Compound 1-dihydrochloride salt from water as solvent and IPA as anti-solvent, the solubility of the API in these combinations were determined. Suspensions in various water/IPA mixtures were prepared and incubated for 24 hours at 5°, 25°, 40° and 50° C. Upon completion of the incubation time the solids were separated from the mother liquors by centrifugation and filtration and the concentration of Compound 1 in solution was determined by HPLC analysis. The remaining solids were analyzed by HT-XRPD.

[8] = Polymorph and hydrate screen: physical stability of solid forms (AAC, drying); assay type: physicochemical; conditions: 40° C. and 75% RH for 2 days
Experimental: The solids obtained from the various crystallization experiments were analyzed by High Throughput XRPD (HT-XRPD). If relevant, the mother liquors were allowed to evaporate completely, and the remaining solids were analyzed by HT-XRPD. Subsequently, all solids were exposed to accelerated aging conditions for 48 hours at 40° C. and 75% RH (AAC).
From the polymorph screen, four novel diffractograms were identified in addition to the two known forms of Compound 1-dihydrochloride, Form 1 and Form 2. Form 1 was the most abundant solid form found in this polymorph screen. The novel diffractograms were designated Forms 3, 4, 5 and 6. All these forms were found with low frequency and were poorly crystalline. […] The HT-XRPD patterns of the new Forms 3, 4, 5 and 6 are shown in FIG. 12, FIG. 13, FIG. 14, and FIG. 15, respectively.
After completion of the equilibration time, the remaining solids were analyzed by HT-XRPD dry under ambient conditions and dried under vacuum. The mother liquors were analyzed by Karl Fisher titration for water content determination. […] The solutions from these experiments were evaporated under vacuum (200 mBar) and the obtained dried solids analyzed by HT-XRPD. All the solids were then exposed to 40° C. and 75% RH for two days.

CO/N=C(\C(=O)N[C@@H]1C(=O)N2C(C(=O)[O-])=C(C[N+]3(C)CCCC3)CS[C@H]12)c1csc(N)n1 [Cefepime, cefepime]
MIC50 ([1]; N=10 strains): 16 µg/mL (≈ 33.3 µM) | MIC90 ([1]; N=10 strains, read-out: MIC90): 32 µg/mL (≈ 66.6 µM) | MIC Range ([1]; N=10 strains, in µg/mL): 16-32 | % present, cefepime ([2]; 20 hours): 99% | % S@8 (Pseudomonas aeruginosa [3]): 0% | MIC50 (Pseudomonas aeruginosa [3]): 32 µg/mL (≈ 66.6 µM) | MIC90 (Pseudomonas aeruginosa [3]): 256 µg/mL (≈ 533 µM) | % S@8 (Pseudomonas aeruginosa [4]): 30.8% | MIC Range (Pseudomonas aeruginosa [4]; 507 isolates non-susceptible to meropenem (MIC>8 μg/mL)): 1-128 | MIC50 (Pseudomonas aeruginosa [4]): 32 µg/mL (≈ 66.6 µM) | MIC90 (Pseudomonas aeruginosa [4]): 256 µg/mL (≈ 533 µM) | % S [5]: 20% | MIC90 [5]: 64 µg/mL (≈ 133 µM) | MIC50 ([5]; read-out: MIC50): 32 µg/mL (≈ 66.6 µM)

NCCN[C@H]1CC[C@H](CC(=O)N[C@H]2Cc3cccc(C(=O)O)c3OB2O)CC1 [Compound 1-dihydrochloride, (R)-3-(2-(trans-4-(2-aminoethylamino)cyclohexyl)acetamido)-2-hydroxy-3,4-dihydro-2H-benzo[e][1,2]oxaborinine-8-carboxylic acid dihydrochloride]
Solid form after three days exposure ([6]; 5° C./ambient RH, 25° C./60% RH, 30° C./65% RH and 40° C./75% RH, HR-XRPD, starting mixture of Form 1 and Form 2): full conversion to Form 1 | Solid form upon incubation for extended periods ([6]; same four conditions, at least up to 1 month): No significant changes in the solid form | solubility at 24 h ([7]; 5 °C, IPA/H2O (40:60), 5° C.): 271 mg/mL | solubility at 24 h ([7]; 5 °C, IPA/H2O (50:50), 5° C.): 217 mg/mL | solubility at 24 h ([7]; 5 °C, IPA/H2O (60:40), 5° C.): 129 mg/mL | solubility at 24 h ([7]; 5 °C, IPA/H2O (70:30), 5° C.): 78.6 mg/mL | solubility at 24 h ([7]; 5 °C, IPA/H2O (80:20), 5° C.): 28 mg/mL | solubility at 24 h ([7]; 5 °C, IPA/H2O (90:10), 5° C.): 4.2 mg/mL | solubility at 24 h ([7]; 25 °C, IPA/H2O (40:60), 25° C.): 429 mg/mL | solubility at 24 h ([7]; 25 °C, IPA/H2O (50:50), 25° C.): 336 mg/mL | solubility at 24 h ([7]; 25 °C, IPA/H2O (60:40), 25° C.): 205 mg/mL | solubility at 24 h ([7]; 25 °C, IPA/H2O (70:30), 25° C.): 101 mg/mL | solubility at 24 h ([7]; 25 °C, IPA/H2O (80:20), 25° C.): 41.7 mg/mL | solubility at 24 h ([7]; 25 °C, IPA/H2O (90:10), 25° C.): 4.2 mg/mL | solubility at 24 h ([7]; 40 °C, IPA/H2O (40:60), 40° C.): 567 mg/mL | solubility at 24 h ([7]; 40 °C, IPA/H2O (50:50), 40° C.): 454 mg/mL | solubility at 24 h ([7]; 40 °C, IPA/H2O (60:40), 40° C.): 424 mg/mL | solubility at 24 h ([7]; 40 °C, IPA/H2O (70:30), 40° C.): 189 mg/mL | solubility at 24 h ([7]; 40 °C, IPA/H2O (80:20), 40° C.): 81 mg/mL | solubility at 24 h ([7]; 40 °C, IPA/H2O (90:10), 40° C.): 5.6 mg/mL | solubility at 24 h ([7]; 50 °C, IPA/H2O (40:60), 50° C.): 714 mg/mL | solubility at 24 h ([7]; 50 °C, IPA/H2O (50:50), 50° C.): 528 mg/mL | solubility at 24 h ([7]; 50 °C, IPA/H2O (60:40), 50° C.): 440 mg/mL | solubility at 24 h ([7]; 50 °C, IPA/H2O (70:30), 50° C.): 235 mg/mL | solubility at 24 h ([7]; 50 °C, IPA/H2O (80:20), 50° C.): 102 mg/mL | solubility at 24 h ([7]; 50 °C, IPA/H2O (90:10), 50° C.): 7.2 mg/mL

C[C@@H](O)[C@H]1C(=O)N2C(C(=O)O)=C(S[C@@H]3CN[C@H](C(=O)N(C)C)C3)[C@H](C)[C@H]12 [Meropenem, meropenem]
MIC90 [1]: 128 µg/mL (≈ 334 µM) | MIC50 ([1]; N=10 strains): 64 µg/mL (≈ 167 µM) | % S@8 ([1]; N=10 strains): 0% | % present, meropenem ([2]; 24 hours): 89% | % S@8 (Pseudomonas aeruginosa [3]): 36.6% | MIC50 (Pseudomonas aeruginosa [3]): 16 µg/mL (≈ 41.7 µM) | MIC90 (Pseudomonas aeruginosa [3]; read-out: MIC90): > 128 µg/mL | % S@8 (Pseudomonas aeruginosa [4]): 0% | MIC50 (Pseudomonas aeruginosa [4]): 32 µg/mL (≈ 83.4 µM) | MIC90 (Pseudomonas aeruginosa [4]; read-out: MIC90): > 128 µg/mL | % S [5]: 0% | MIC50 [5]: 128 µg/mL (≈ 334 µM) | MIC90 [5]: > 128 µg/mL

NCCN[C@H]1CC[C@H](CC(=O)N[C@H]2Cc3cccc(C(=O)O)c3OB2O)CC1 [Form 6]
Physical stability upon exposure to AAC [8]: physically unstable; also recorded: conversion to Form 1 was observed; also recorded: converted to Form 1
